Tests used:
Format in all cases: in vivo, Arabidopsis thaliana
Arabidopsis seedlings [1] = experiment: Testing of compounds for somatic embryogenesis activity in the presence of 2,4-D (FIG. 1); details: in the presence of 1 μM 2,4-D
From the text: The chemical screen was based on a modified version of an Arabidopsis somatic embryogenesis protocol that uses germinated seeds as explants (see Kobayashi et al., 2010 Kobayashi T, Nagayama Y, Higashi K and Kobayashi M. (2010). Establishment of a tissue culture system for somatic embryogenesis from germinating embryos of Arabidopsis thaliana Plant Biotech. 27: 359-364). In the original protocol, seeds were germinated on solid medium for one day, then the embryos were removed from the seed coat and transferred to solid media containing 4.5 μM 2,4-D to stimulate somatic embryo development. In this example, the protocol is simplified by germinating and culturing the seeds continuously in liquid medium containing 1 μM 2,4-D. Under optimized culture conditions (circa 30 seeds in 30 ml medium) approximately 18% of Col0 seeds form somatic embryos. […]
Approximately 10 surface-sterilized Columbia (Col-0) seeds were added to each well. […] The number of seedlings that formed somatic embryos was counted two weeks later. […] Positive compounds were analysed using ChemMine (http://bioweb.ucr.edu/ChemMineV2/), ChemSpider (http://www.chemspider.com/) and the ZINC database (http://zinc.docking.org) for analogues with a putative biological function. […]

Arabidopsis seedlings [2] = experiment: Dose-response analysis for somatic embryo induction in containers (circa 30 seeds in 30 ml medium; FIG. 2, FIG. 4)
From the text: The chemical screen was based on a modified version of an Arabidopsis somatic embryogenesis protocol that uses germinated seeds as explants (see Kobayashi et al., 2010 Kobayashi T, Nagayama Y, Higashi K and Kobayashi M. (2010). Establishment of a tissue culture system for somatic embryogenesis from germinating embryos of Arabidopsis thaliana Plant Biotech. 27: 359-364). In the original protocol, seeds were germinated on solid medium for one day, then the embryos were removed from the seed coat and transferred to solid media containing 4.5 μM 2,4-D to stimulate somatic embryo development. In this example, the protocol is simplified by germinating and culturing the seeds continuously in liquid medium containing 1 μM 2,4-D. Under optimized culture conditions (circa 30 seeds in 30 ml medium) approximately 18% of Col0 seeds form somatic embryos.
Approximately 10 surface-sterilized Columbia (Col-0) seeds were added to each well. The seeds were stratified at 4° C. in the dark for two days and then grown in on a rotary shaker (100 rpm/min) on a 16 h/8 h day/night cycle at 25° C. The number of seedlings that formed somatic embryos was counted two weeks later. […] Positive compounds were analysed using ChemMine (http://bioweb.ucr.edu/ChemMineV2/), ChemSpider (http://www.chemspider.com/) and the ZINC database (http://zinc.docking.org) for analogues with a putative biological function. […]

Arabidopsis seedlings [3] = experiment: Somatic embryogenesis at increasing 2,4-D concentrations with or without 25 μM C#5 (FIG. 3)
Method: All subsequent experiments were performed under the conditions described above, but using 100 ml containers (Greiner) containing 30 ml of medium media using approximately 30 seeds/container. All hormones were ordered from Duchefa and Dicamba from Sigma-Aldrich.
2,4-D is widely used to induce somatic embryogenesis from plant explant. In Arabidopsis immature zygotic embryos occasionally form somatic embryos when grown in basal medium, while germinating embryos or other vegetative tissues are unable to form embryos.

SMILES	level of SE, as measured by the percentage of seedlings with somatic embryos (Arabidopsis seedlings [1])	seedlings with somatic embryo development (Arabidopsis seedlings [2]; at about 10 to about 50 μM compound, compared to circa 5% of seedlings in the control)	somatic embryo formation in the absence of 2,4-D (Arabidopsis seedlings [3]; 25 μM C#5, 0 μM 2,4-D)	somatic embryo formation at all of the tested 2,4-D concentrations (Arabidopsis seedlings [3]; 25 μM C#5, 2,4-D up to 2 μM, versus control (2,4-D only))	threshold concentration of 2,4-D needed to achieve enhanced SE (Arabidopsis seedlings [3]; using 25 μM of C#5, seedlings grown in containers)	Col0 seeds that form somatic embryos (Arabidopsis seedlings [2]; liquid medium containing 1 μM 2,4-D alone, circa 30 seeds in 30 ml medium)
CC1=C(C(=O)OC2CCCC2)C(c2ccncc2)C2=C(CC(C)(C)CC2=O)N1 (stereo not drawn) [C#5, cyclopentyl 2,7,7-trimethyl-5-oxo-4-(4-pyridinyl)-1,4,5,6,7,8-hexahydro-3-quinolinecarboxylate]	high percentage	about 50%	not able to induce somatic embryo formation	did enhance somatic embryo formation	about 0.4 μM	–
O=C(O)COc1ccc(Cl)cc1Cl [2,4-D, 2,4-dichlorophenoxyacetic acid, reference compound]	–	–	–	–	–	approximately 18%

Reference: patent US20150296779A1, “SUBSTITUTED DIHYDROPYRIDINES FOR SOMATIC EMBRYOGENESIS IN PLANTS” (STICHTING DIENST LANDBOUWKUNDIG ONDERZOEK, priority 2012, published 2015)
